From ChEMBL document CHEMBL1130543, “Solid-phase synthesis of hybrid thiazolidinedione-fatty acid PPAR ligands” (Bioorg Med Chem Lett, 1997)

Tests used:
[1] = target: T1, Peroxisome proliferator-activated receptor gamma (Homo sapiens, UniProt P37231)
T1 sequence (P37231 whole entry): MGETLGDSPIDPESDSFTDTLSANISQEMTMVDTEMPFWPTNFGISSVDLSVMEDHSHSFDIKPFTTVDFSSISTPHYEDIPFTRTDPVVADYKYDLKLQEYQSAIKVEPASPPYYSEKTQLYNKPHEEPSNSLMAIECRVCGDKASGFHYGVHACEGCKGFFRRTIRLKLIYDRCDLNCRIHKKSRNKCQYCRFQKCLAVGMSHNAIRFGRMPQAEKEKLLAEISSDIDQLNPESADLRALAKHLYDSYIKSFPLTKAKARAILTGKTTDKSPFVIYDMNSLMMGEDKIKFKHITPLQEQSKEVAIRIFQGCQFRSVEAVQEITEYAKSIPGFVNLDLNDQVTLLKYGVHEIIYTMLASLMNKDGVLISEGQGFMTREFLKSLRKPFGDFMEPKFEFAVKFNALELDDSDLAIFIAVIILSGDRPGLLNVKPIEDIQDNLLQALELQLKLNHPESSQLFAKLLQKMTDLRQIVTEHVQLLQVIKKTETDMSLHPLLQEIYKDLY
Description: Binding affinity was determined by displacement of 20 nM [3H]- thiazolidinedione from 4 nM biotinylated human peroxisome proliferator-activated receptor (PPAR gamma) ligand binding domain

[2] = Tested for transactivation of human PPAR gamma-Gal4 chimera in CV-1 cells; format: functional, cell-based
[3] = target: T1, Peroxisome proliferator-activated receptor gamma; experiment: Binding affinity was determined by displacement of 20 nM [3H]- thiazolidinedione from 4 nM biotinylated human Peroxisome proliferator activated receptor gamma (PPAR gamma) ligand binding domain

Compound | Ki [1] | Ki [3] | EC50 [2]
CCCCCCC(=O)NCCOc1ccc(CC2SC(=O)NC2=O)cc1 (stereo not drawn) | 1400 nM | – | –
CCCCCCC(=O)N(C)CCOc1ccc(CC2SC(=O)NC2=O)cc1 (stereo not drawn) | 61 nM | – | 810 nM
CCCCCCCCC(=O)NCCOc1ccc(CC2SC(=O)NC2=O)cc1 (stereo not drawn) | 270 nM | – | –
CN(CCOc1ccc(CC2SC(=O)NC2=O)cc1)c1ccccn1 (stereo not drawn) [ROSIGLITAZONE] | – | – | 50 nM
CCCCCCCC(=O)N(C)CCOc1ccc(CC2SC(=O)NC2=O)cc1 (stereo not drawn) | 48 nM | – | 280 nM
CCCCCCCCCC(=O)N(C)CCOc1ccc(CC2SC(=O)NC2=O)cc1 (stereo not drawn) | 20 nM | – | 290 nM
C=CCC/C=C/C(=O)N(C)CCOc1ccc(CC2SC(=O)NC2=O)cc1 (stereo not drawn) | 18 nM | – | 520 nM
CCCCCCCC(=O)NCCOc1ccc(CC2SC(=O)NC2=O)cc1 (stereo not drawn) | 290 nM | – | –
CCCCC/C=C/C/C=C\C/C=C\C/C=C\CCCC(=O)O | 1500 nM | – | 30000 nM
CCCCCCCCCC(=O)NCCOc1ccc(CC2SC(=O)NC2=O)cc1 (stereo not drawn) | 130 nM | – | –
CCCCCCCCC(=O)N(C)CCOc1ccc(CC2SC(=O)NC2=O)cc1 (stereo not drawn) | 18 nM | – | 280 nM

Continued, in another order:

Ki [1] | Ki [3] | Compound | EC50 [2]
> 10000 nM | – | C=CCCC(=O)NCCOc1ccc(CC2SC(=O)NC2=O)cc1 (stereo not drawn) | –
> 10000 nM | – | C/C=C/CC(=O)NCCOc1ccc(CC2SC(=O)NC2=O)cc1 (stereo not drawn) | –
– | 10000 nM | CCCCCC(=O)NCCOc1ccc(CC2SC(=O)NC2=O)cc1 (stereo not drawn) | –
> 10000 nM | – | CCCCC(=O)NCCOc1ccc(CC2SC(=O)NC2=O)cc1 (stereo not drawn) | –
600 nM | – | C=CCCC(=O)N(C)CCOc1ccc(CC2SC(=O)NC2=O)cc1 (stereo not drawn) | –
1100 nM | – | CCCCC(=O)N(C)CCOc1ccc(CC2SC(=O)NC2=O)cc1 (stereo not drawn) | –
1200 nM | – | C/C=C/CC(=O)N(C)CCOc1ccc(CC2SC(=O)NC2=O)cc1 (stereo not drawn) | –
6800 nM | – | C=CCC/C=C/C(=O)NCCOc1ccc(CC2SC(=O)NC2=O)cc1 (stereo not drawn) | –
180 nM | – | CCCCCC(=O)N(C)CCOc1ccc(CC2SC(=O)NC2=O)cc1 (stereo not drawn) | –
> 10000 nM | – | CC/C=C/C(=O)NCCOc1ccc(CC2SC(=O)NC2=O)cc1 (stereo not drawn) | –
1200 nM | – | CC/C=C/C(=O)N(C)CCOc1ccc(CC2SC(=O)NC2=O)cc1 (stereo not drawn) | –
